Activity calls are given as the source filed them. No cut-off for these calls is given here.
Experiments:
[1] = target: T1, Amyloid-beta precursor protein (Homo sapiens, UniProt P05067); assay: Displacement of [3H]AZD2184 from human amyloid beta(1 to 40)
[2] = target: T1, Amyloid-beta precursor protein; assay: Binding affinity to amyloid beta(1 to 40) in cortical section isolated from Alzheimer disease patient by autoradiographic analysis; settings: tested as the 3H-labelled form
[3] = target: T1, Amyloid-beta precursor protein; assay: Binding affinity to amyloid beta(1 to 40) in cortical section isolated from Alzheimer disease patient at 1 nM by autoradiographic analysis
[4] = system: Mus musculus; assay: Binding affinity to amyloid beta(1 to 40) in Tg2576 mouse plaque at 150 nmol/kg, iv after 10 mins by autoradiography analysis; assay type: functional, organism-based

T1 sequence (P05067 whole entry): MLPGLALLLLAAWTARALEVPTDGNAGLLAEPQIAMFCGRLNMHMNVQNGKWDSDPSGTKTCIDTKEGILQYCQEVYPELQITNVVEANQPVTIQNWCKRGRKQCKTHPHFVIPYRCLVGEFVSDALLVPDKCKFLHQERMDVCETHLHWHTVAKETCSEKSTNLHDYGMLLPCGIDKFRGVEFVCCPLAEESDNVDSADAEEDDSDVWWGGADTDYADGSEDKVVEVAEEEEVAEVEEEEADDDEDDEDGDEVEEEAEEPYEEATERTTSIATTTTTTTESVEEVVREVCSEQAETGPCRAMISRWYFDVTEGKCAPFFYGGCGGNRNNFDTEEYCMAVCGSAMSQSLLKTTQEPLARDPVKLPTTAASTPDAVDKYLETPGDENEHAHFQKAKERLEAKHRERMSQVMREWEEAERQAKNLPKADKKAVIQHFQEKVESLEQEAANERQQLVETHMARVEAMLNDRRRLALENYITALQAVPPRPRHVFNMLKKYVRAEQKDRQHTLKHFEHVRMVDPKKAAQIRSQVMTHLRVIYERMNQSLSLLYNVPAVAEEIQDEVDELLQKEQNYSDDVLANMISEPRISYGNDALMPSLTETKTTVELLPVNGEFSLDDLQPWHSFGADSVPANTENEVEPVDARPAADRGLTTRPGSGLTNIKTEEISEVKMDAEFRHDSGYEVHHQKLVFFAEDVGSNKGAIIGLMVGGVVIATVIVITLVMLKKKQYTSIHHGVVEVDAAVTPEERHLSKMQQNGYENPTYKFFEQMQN

IC50 [1]	SMILES	also measured
32 nM	COc1ccc2oc(-c3ccc(C(N)=O)nc3F)cc2c1	
66 nM	Oc1ccc2nc(-c3ccc(NCCCF)nc3)sc2c1	
44 nM	NC(=O)c1ccc(-c2cc3cc(O)ccc3o2)c(F)n1	
19 nM	CNc1ccc(-c2cc3cc(C(N)=O)ccc3o2)c(F)n1	
22 nM	CNc1ccc(-c2nc3ccc(O)cc3s2)cn1	
33 nM	Oc1ccc2nc(-c3ccc(NCCF)nc3)sc2c1	
14 nM	CNc1ccc(-c2nc3ccc(OC)cc3s2)c(F)n1	
35 nM	COc1ccc2nc(-c3ccc(NCCF)nc3)oc2c1	Activity [2]: inactive
158 nM	Oc1ccc2nc(-c3ccc(NCCF)nc3)oc2c1	
30 nM	CNc1ncc(-c2cc3cc(O)ccc3o2)cc1F	
24 nM	CNc1ccc(-c2cc3cc(O)ccc3o2)c(F)n1 [FLUTAFURANOL]	Activity ([3]; tested as the 3H-labelled form): Active; Activity ([4]; tested as the 3H-labelled form): Active
124 nM	CNc1ccc(-c2nc3ccc(O)cc3s2)c(F)n1	
98 nM	CNc1ncc(-c2nc3ccc(O)cc3s2)cc1F	
32 nM	CNc1ccc(-c2cc3cc(C(N)=O)ccc3o2)nc1F	
24 nM	CNc1ccc(-c2nc3ccc(O)cc3s2)cc1F [FLUTEMETAMOL]	Activity [3]: Active; Activity [4]: Active
44 nM	CNc1ccc(-c2nc3ccc(O)cc3s2)nc1F	
35 nM	CNc1ccc(-c2cc3cc(O)ccc3o2)nc1F	
395 nM	Oc1ccc2nc(-c3ccc(NCCCF)nc3)oc2c1	
